This series is described as follows: Pharmacokinetic study of Icotinib hydrochloride and Polymorph Form II of Icotinib maleate, oral suspension, plasma by HPLC. It counts as in vivo. The settings on record: Sprague-Dawley (SD), rat, fasted male SD rats, oral suspension in sodium carboxymethyl cellulose, dose equivalent to 35 mg/kg Icotinib; for AUC(0-t): read-out: AUC(0-24). From the text:
Drugs and reagents: the Icotinib hydrochloride used in this study was of Crystalline Form I disclosed by the WO2010/003313. Polymorph Form II of Icotinib maleate and Icotinib hydrochloride were ground to fine particles. The material content (purity) was not less than 99.0%. Sodium carboxymethyl cellulose was medical supply graded.
Experimental animals: SD rats were divided to an Icotinib hydrochloride group and a Polymorph Form II group, with both groups consisting of males.
Pharmaceutical preparation: the amount of each compound was weighed and then sodium carboxymethyl cellulose was added to result in the test compound's concentration of 0.5%. The solid mixture was then added to prepare a suspension thereof at a final concentration of […] in water.
Administration and sample collection: each suspension was administered orally to fasted SD rats at a dose equivalent to 35 mg/kg Icotinib in a dose volume of 5 ml/kg. 0.4 ml of blood was collected in EDTA-K pre anticoagulant tubes at time intervals of 0.5, 1, 1.5, 2, 4, 6, 8 and 24 hrs after the administration of the test compound, centrifuged at 3000 rpm for 10 minutes, and 120 μl plasma was collected and kept in cold storage.
Samples were analyzed by high performance liquid chromatography. The chromatographic conditions utilized C18-silane bonded silica as stationary phase, 0.02 mol/L of sodium dihydrogen phosphate in acetonitrile (40:60, using sodium hydroxide solution to adjust pH to 5.0) as the mobile phase and a detection wavelength of 334 nm. PK profile comparison of Polymorph Form II of Icotinib maleate and Crystalline Form I of Icotinib hydrochloride was summarized in Table 1 and FIG. 3.

By AUC(0-inf) is commonly meant total exposure, with the tail of the curve extrapolated. A word on the Cmax: it is the maximum level reached in the sampled fluid or tissue. A word on the Tmax: it is the time at which the peak concentration occurs. The half-life is the time in which the quantity being followed falls by half.

SMILES strings stand for the structures. Structures can show the parent of a compound that is named as a salt.

With `C#Cc1cccc(Nc2ncnc3cc4c(cc23)OCCOCCOCCO4)c1.O=C(O)/C=C\C(=O)O` [Form II, Icotinib maleate], the area under the curve AUC(0-inf) was 65400 ng·h/mL, the Cmax is 7530 ng/mL, the time to peak (Tmax) came to 5.33 h and the half-life was 184 min. Moreover, the AUC(0-t) turned out to be 64800 ng·h/mL.
The matching figures for `C#Cc1cccc(Nc2ncnc3cc4c(cc23)OCCOCCOCCO4)c1` [Icotinib hydrochloride]: 19100 ng·h/mL, 3360 ng/mL, 2.33 h, 176 min and 19000 ng·h/mL.
